# Measured values from ChEMBL document CHEMBL1154389, “Discovery of pyrimidine benzimidazoles as Src-family selective Lck inhibitors. Part II” (Bioorg Med Chem Lett, 2009).
# How the values were obtained:
# [1] = biological target: Tyrosine-protein kinase Lck (Homo sapiens, UniProt P06239); assay: Inhibition of LCK
# [2] = biological target: Tyrosine-protein kinase HCK (Homo sapiens, UniProt P08631); assay: Inhibition of HCK
# [3] = biological target: Proto-oncogene tyrosine-protein kinase Src (Homo sapiens, UniProt P12931); assay: Inhibition of SRC
# BaF3 = assay: Cytotoxicity against mouse BAF3 cells; type: functional, cell-based
# Mus musculus = assay: (§1) AUC in mouse at 20 mg/kg, po; type: ADME, organism-based, Plasma; parameters: dose 20 mg/kg, route oral
# [4] = as §1; type: ADME, organism-based, Plasma; parameters: dose 20 mg/kg, route oral; details: mouse, plasma, po, 20 mg/kg
# [5] = Metabolic stability in mouse assessed as extraction ratio at 20 mg/kg, po; type: ADME, organism-based; parameters: dose 20 mg/kg, route oral; details: in vivo
# Tyrosine-protein kinase HCK, sequence (P08631 whole entry): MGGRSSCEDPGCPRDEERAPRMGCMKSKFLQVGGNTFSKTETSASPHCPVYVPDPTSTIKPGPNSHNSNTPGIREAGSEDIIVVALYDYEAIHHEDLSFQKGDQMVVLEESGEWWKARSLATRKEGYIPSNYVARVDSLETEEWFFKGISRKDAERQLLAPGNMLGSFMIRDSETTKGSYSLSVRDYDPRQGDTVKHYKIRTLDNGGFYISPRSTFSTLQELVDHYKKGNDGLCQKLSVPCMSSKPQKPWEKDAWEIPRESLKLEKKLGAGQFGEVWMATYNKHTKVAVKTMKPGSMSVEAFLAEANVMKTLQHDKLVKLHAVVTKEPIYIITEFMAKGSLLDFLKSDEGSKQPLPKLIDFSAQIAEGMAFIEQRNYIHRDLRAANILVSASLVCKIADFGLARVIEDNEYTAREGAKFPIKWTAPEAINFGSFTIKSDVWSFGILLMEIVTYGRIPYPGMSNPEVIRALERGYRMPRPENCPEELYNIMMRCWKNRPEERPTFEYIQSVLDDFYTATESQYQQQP
# Tyrosine-protein kinase Lck, sequence (P06239 whole entry): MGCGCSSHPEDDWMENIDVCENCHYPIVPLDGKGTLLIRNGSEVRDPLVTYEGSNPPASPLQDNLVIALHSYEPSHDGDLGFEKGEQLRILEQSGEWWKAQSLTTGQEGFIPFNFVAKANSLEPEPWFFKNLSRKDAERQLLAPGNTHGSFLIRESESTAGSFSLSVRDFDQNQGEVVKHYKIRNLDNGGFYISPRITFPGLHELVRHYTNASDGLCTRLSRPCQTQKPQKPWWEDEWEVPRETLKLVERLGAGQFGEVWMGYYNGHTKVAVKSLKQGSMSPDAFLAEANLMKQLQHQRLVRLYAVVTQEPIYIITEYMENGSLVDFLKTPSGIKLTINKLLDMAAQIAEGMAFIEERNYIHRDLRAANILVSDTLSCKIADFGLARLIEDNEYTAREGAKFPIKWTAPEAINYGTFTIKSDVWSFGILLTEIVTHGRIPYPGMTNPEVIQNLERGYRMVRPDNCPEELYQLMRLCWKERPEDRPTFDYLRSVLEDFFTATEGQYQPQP
# Proto-oncogene tyrosine-protein kinase Src, sequence (P12931 2-536 limits assumed): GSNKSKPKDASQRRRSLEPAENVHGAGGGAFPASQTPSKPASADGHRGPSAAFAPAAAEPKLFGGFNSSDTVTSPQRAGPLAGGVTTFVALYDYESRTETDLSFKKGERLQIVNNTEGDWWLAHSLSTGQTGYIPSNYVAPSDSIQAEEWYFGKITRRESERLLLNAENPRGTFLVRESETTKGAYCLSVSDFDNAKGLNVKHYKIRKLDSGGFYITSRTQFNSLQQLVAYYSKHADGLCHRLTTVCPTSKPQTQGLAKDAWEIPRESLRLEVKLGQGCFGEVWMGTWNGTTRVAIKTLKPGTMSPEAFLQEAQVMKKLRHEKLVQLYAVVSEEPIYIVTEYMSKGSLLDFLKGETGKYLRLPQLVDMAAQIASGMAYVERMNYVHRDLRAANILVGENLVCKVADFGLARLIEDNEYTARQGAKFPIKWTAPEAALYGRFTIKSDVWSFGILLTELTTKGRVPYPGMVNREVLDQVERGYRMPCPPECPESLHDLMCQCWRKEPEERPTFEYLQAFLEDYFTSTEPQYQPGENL
IC50 [1] [nM],IC50 [2] [nM],IC50 [3] [nM],AUC [4] [µM·h],hepatic extraction ratio [5],Compound,IC50 (BaF3) [nM],AUC (Mus musculus) [nmol·h/L]
13,345,,,,Cc1ccc(NC(=O)c2cccc(C(F)(F)F)c2)cc1Nc1nc2ccccc2n1-c1cc(NCCCCN)ncn1,,
11,43,450,,,Cc1ccc(NC(=O)c2cccc(C(F)(F)F)c2)cc1Nc1nc2ccccc2n1-c1cc(N)ncn1,,
11,20,130,,,Cc1ccc(NC(=O)c2cc(N3CCN(C)CC3)cc(C(F)(F)F)c2)cc1Nc1nc2ccccc2n1-c1cc(N)ncn1,,
22,> 2500,,,,Cc1cccc(NC(=O)c2ccc(C)c(Nc3nc4ccccc4n3-c3cc(NCCCCN(C)C)ncn3)c2)c1,,
5,65,139,,,Cc1ccc(NC(=O)c2cccc(C(F)(F)F)c2)cc1Nc1nc2ccccc2n1-c1cc(NCCCCN(C)C)ncn1,,
4,9,32,,,CCN1CCN(Cc2ccc(C(=O)Nc3ccc(C)c(Nc4nc5ccccc5n4-c4cc(N)ncn4)c3)cc2Cl)CC1,,
27,192,1920,,,Cc1ccc(NC(=O)c2cccc(C(F)(F)F)c2)cc1Nc1nc2ccccc2n1-c1cc(NCCO)ncn1,,
2030,> 2500,> 2500,,,COc1cc(-n2c(Nc3cc(NC(=O)c4cccc(C(F)(F)F)c4)ccc3C)nc3ccccc32)ncn1,,
26,49,165,,,Cc1ccc(NC(=O)c2cccc(C(F)(F)F)c2)cc1Nc1nc2ccccc2n1-c1cc(NCCCC2COCCN2)ncn1 (stereo not drawn),,
2400,> 2500,> 2500,,,Cc1ccc(C(=O)Nc2cccc(C(F)(F)F)c2)cc1Nc1nc2ccccc2n1-c1ncnc(N)c1C,,
230,> 2500,,,,Cc1ccc(NC(=O)c2cccc(C(F)(F)F)c2)cc1Nc1nc2ccccc2n1-c1cc(NCCN)ncn1,,
20,1810,,,,CCN(CC)CCCCNc1cc(-n2c(Nc3cc(C(=O)Nc4cccc(C)c4)ccc3C)nc3ccccc32)ncn1,,
11,130,458,,,Cc1ccc(C(=O)Nc2cccc(C(F)(F)F)c2)cc1Nc1nc2ccccc2n1-c1cc(NCCN2CCN(C)CC2)ncn1,,
8,11,177,,,Cc1ccc(NC(=O)c2cc(CN3CCN(C)CC3)n(C(C)(C)C)n2)cc1Nc1nc2ccccc2n1-c1cc(N)ncn1,,
43,84,916,,,Cc1ccc(NC(=O)c2ccc(C(C)(C)C)s2)cc1Nc1nc2ccccc2n1-c1cc(N)ncn1,6,
177,> 2500,,,,Cc1cc(NC(=O)c2ccc(C)c(Nc3nc4ccccc4n3-c3cc(N)ncn3)c2)ccn1,,
204,917,2370,,,Cc1ccc(NC(=O)c2cccc(C(F)(F)F)c2)cc1Nc1nc2ccccc2n1-c1cc(NCCc2ccccn2)ncn1,,
23,1960,,,,Cc1ccc(NC(=O)c2cccc(C(F)(F)F)c2)cc1Nc1nc2ccccc2n1-c1cc(NCCCN)ncn1,,
1160,3830,16500,,,Cc1ccc(NC(=O)c2cccc(C(F)(F)F)c2)cc1Nc1nc2ccccc2n1-c1cc(Cl)ncn1,,
24,27,233,,,Cc1ccc(NC(=O)c2cc(OC3CCN(C)CC3)cc(C(F)(F)F)c2)cc1Nc1nc2ccccc2n1-c1cc(N)ncn1,,
43,> 2500,,,,Cc1ccc(C(=O)Nc2cccc(Br)c2)cc1Nc1nc2ccccc2n1-c1cc(N)ncn1,,
58,121,530,,,Cc1ccc(NC(=O)c2cc(Cl)cc(Cl)c2)cc1Nc1nc2ccccc2n1-c1cc(N)ncn1,,
38,805,> 2500,,,Cc1ccc(NC(=O)c2cccc(C(F)(F)F)c2)cc1Nc1nc2ccccc2n1-c1cc(NCCC2CCCN2)ncn1 (stereo not drawn),,
59,> 2500,,,,Cc1ccc(C(=O)Nc2cccc(C(F)(F)F)c2)cc1Nc1nc2ccccc2n1-c1cc(N)ncn1,,
111,378,> 2500,,,CCN(CC)CCNc1cc(-n2c(Nc3cc(NC(=O)c4cccc(C(F)(F)F)c4)ccc3C)nc3ccccc32)ncn1,,

IC50 [1] [nM],IC50 [2] [nM],IC50 [3] [nM],AUC [4] [µM·h],hepatic extraction ratio [5],Compound,IC50 (BaF3) [nM],AUC (Mus musculus) [nmol·h/L]
12,54,,,,Cc1ccc(C(=O)Nc2cccc(C(F)(F)F)c2)cc1Nc1nc2ccccc2n1-c1ncnc(NCCCN2CCN(C)CC2)n1,,
70,245,1540,,,Cc1cccc(C(=O)Nc2ccc(C)c(Nc3nc4ccccc4n3-c3cc(N)ncn3)c2)c1,,
132,475,1650,,,Cc1ccc(NC(=O)c2cccc(Cl)c2)cc1Nc1nc2ccccc2n1-c1cc(N)ncn1,,
29,69,305,,,Cc1ccc(NC(=O)c2cccc(C(F)(F)F)c2)cc1Nc1nc2ccccc2n1-c1cc(NCCN2CCN(C)CC2)ncn1,,
715,> 2500,,,,Cc1ccc(NC(=O)c2ccncc2Cl)cc1Nc1nc2ccccc2n1-c1cc(N)ncn1,,
1080,> 2500,,,,Cc1ccc(C(=O)Nc2ccccc2)cc1Nc1nc2ccccc2n1-c1cc(N)ncn1,,
19,1870,,,,Cc1cccc(NC(=O)c2ccc(C)c(Nc3nc4ccccc4n3-c3cc(NCCCN4CCN(C)CC4)ncn3)c2)c1,,
,46,,,,Cc1ccc(NC(=O)c2ccncc2C(C)(C)C)cc1Nc1nc2ccccc2n1-c1cc(N)ncn1,,
22,139,,,,Cc1ccc(C(=O)Nc2cccc(C(C)(C)C)c2)cc1Nc1nc2ccccc2n1-c1cc(N)ncn1,,
> 2500,> 2500,> 2500,,,Cc1ccc(NC(=O)c2cccc(C(F)(F)F)c2)cc1Nc1nc2ccccc2n1-c1cc(N2CCOCC2)ncn1,,
1370,> 2500,,,,Cc1ccc(C(=O)Nc2cccc(C(F)(F)F)c2)cc1Nc1nc2ccccc2n1-c1cc(NCCC#N)ncn1,,
135,405,1690,,,COCCNc1cc(-n2c(Nc3cc(NC(=O)c4cccc(C(F)(F)F)c4)ccc3C)nc3ccccc32)ncn1,,2687
18,475,274,,,CCN(CC)CCCCNc1cc(-n2c(Nc3cc(C(=O)Nc4cccc(C(F)(F)F)c4)ccc3C)nc3ccccc32)ncn1,,
11,16,71,,,CCN1CCN(c2cc(C(=O)Nc3ccc(C)c(Nc4nc5ccccc5n4-c4cc(N)ncn4)c3)cc(C(F)(F)F)c2)CC1,,
18,260,494,,,Cc1ccc(C(=O)Nc2cccc(C(F)(F)F)c2)cc1Nc1nc2ccccc2n1-c1cc(NCCCN2CCN(C)CC2)ncn1,,
17,> 2500,,,,Cc1ccc(C(=O)Nc2cccc(OC(F)F)c2)cc1Nc1nc2ccccc2n1-c1cc(N)ncn1,,
6,31,128,,,Cc1ccc(NC(=O)c2cccc(C(F)(F)F)c2)cc1Nc1nc2ccccc2n1-c1cc(NCCCN2CCN(C)CC2)ncn1,,
12,430,97,0.368,< 0.3,CCN(CC)CCCCNc1cc(-n2c(Nc3cc(NC(=O)c4cccc(C(F)(F)F)c4)ccc3C)nc3ccccc32)ncn1,,
71,450,1720,,0.383,Cc1ccc(NC(=O)c2cccc(C(F)(F)F)c2)cc1Nc1nc2ccccc2n1-c1cc(N[C@H]2CC[C@H](N)CC2)ncn1,,
90,> 2500,,,,COc1cccc(NC(=O)c2ccc(C)c(Nc3nc4ccccc4n3-c3cc(N)ncn3)c2)c1,,
63,> 2500,,,,Cc1ccc(C(=O)Nc2cccc(Cl)c2)cc1Nc1nc2ccccc2n1-c1cc(N)ncn1,,
52,> 2500,,,,Cc1cccc(NC(=O)c2ccc(C)c(Nc3nc4ccccc4n3-c3cc(N)ncn3)c2)c1,,
15,56,485,,,Cc1ccc(C(=O)Nc2cccc(C(F)(F)F)c2)cc1Nc1nc2ccccc2n1-c1cc(NCCCCN(C)C)ncn1,,
168,> 2500,> 2500,,,Cc1ccc(NC(=O)c2cccc(C(F)(F)F)c2)cc1Nc1nc2ccccc2n1-c1cc(NC2CCN(C)CC2)ncn1,,
> 2500,> 2500,,,,Cc1ccc(C(=O)Nc2cccc(C(N)=O)c2)cc1Nc1nc2ccccc2n1-c1cc(N)ncn1,,

Compound,IC50 [1] [nM],IC50 [2] [nM],IC50 [3] [nM],AUC [4] [µM·h],hepatic extraction ratio [5],IC50 (BaF3) [nM],AUC (Mus musculus) [nmol·h/L]
Cc1ccc(NC(=O)c2cc(C3CC3)n[nH]2)cc1Nc1nc2ccccc2n1-c1cc(N)ncn1,120,446,7360,,,,
Cc1ccc(C(=O)Nc2cccc(C(C)C)c2)cc1Nc1nc2ccccc2n1-c1cc(N)ncn1,30,151,,,,,
Cc1ccc(C(=O)Nc2cccc3cnccc23)cc1Nc1nc2ccccc2n1-c1cc(N)ncn1,616,> 2500,,,,,
Cc1cccc(NC(=O)c2ccc(C)c(Nc3nc4ccccc4n3-c3cc(NCCN4CCN(C)CC4)ncn3)c2)c1,38,> 2500,,,,,
Cc1ccc(NC(=O)c2cc(C(C)(C)C)nn2C)cc1Nc1nc2ccccc2n1-c1cc(N)ncn1,316,844,7190,,,,
Cc1cn(-c2cc(NC(=O)c3ccc(C)c(Nc4nc5ccccc5n4-c4cc(N)ncn4)c3)cc(C(F)(F)F)c2)cn1,238,904,,,,,
